# Measured values reported in patent US20200347136A1, “CONSTRAINED CYCLIC PEPTIDES AS INHIBITORS OF THE CD2:CD58 PROTEIN-PROTEIN INTERACTION FOR TREATMENT OF DISEASES AND AUTOIMMUNE DISORDERS” (Board of Supervisors for the University of Louisiana System, priority 2019, published 2020).
# Entries after “also recorded” stand apart in the source; their conditions may differ.
# Columns and labels:
# [1] = molecular target: T1, HER2 ECD protein (domains I-IV) (Homo sapiens, UniProt P04626); experiment: SPR binding to immobilized HER2 ECD; conditions: analyte over immobilized HER2 ECD
# T1 construct: immobilizing HER2 ECD protein (domains I-IV, 620 amino acids)
# T1 sequence (P04626 23-652 limits assumed): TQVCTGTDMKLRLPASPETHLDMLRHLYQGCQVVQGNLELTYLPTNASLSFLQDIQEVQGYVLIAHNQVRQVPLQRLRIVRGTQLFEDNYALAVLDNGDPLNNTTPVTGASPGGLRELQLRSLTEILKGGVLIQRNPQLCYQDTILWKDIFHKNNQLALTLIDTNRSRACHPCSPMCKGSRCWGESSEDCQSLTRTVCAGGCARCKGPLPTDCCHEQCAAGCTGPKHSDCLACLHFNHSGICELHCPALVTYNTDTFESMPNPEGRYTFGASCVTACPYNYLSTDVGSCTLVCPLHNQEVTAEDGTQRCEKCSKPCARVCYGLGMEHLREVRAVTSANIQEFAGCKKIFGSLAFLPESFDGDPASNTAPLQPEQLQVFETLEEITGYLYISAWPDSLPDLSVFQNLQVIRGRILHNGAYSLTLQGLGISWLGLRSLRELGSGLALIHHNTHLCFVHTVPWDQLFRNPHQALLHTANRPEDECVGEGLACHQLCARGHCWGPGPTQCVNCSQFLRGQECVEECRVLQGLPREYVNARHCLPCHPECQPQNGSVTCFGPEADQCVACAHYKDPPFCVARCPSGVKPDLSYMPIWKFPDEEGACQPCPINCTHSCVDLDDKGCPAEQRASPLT
# Protocol: Binding affinities were obtained by global fitting analysis of the titration curve to the 1:1 Langmuir interaction model, and the Kd value was calculated.
# [2] = thermal stability by circular dichroism and MALDI-TOF; format: physicochemical; conditions: CD and mass spectrum, 25-75° C., in solution
# Protocol: To confirm further, a mass spectrum of SFTI-G5 was obtained from the solution used to record the CD spectrum at different temperatures. Freeze-dried samples of different temperatures were analyzed via MALDI-TOF mass spectrometry.
# [3] = tested on: A549 Red-FLuc lung tumors; experiment: experimental metastasis model of lung cancer, A549 Red-FLuc cells
# [4] = disulfide bond stability, CD spectrum with dithiothreitol; format: physicochemical; conditions: presence versus absence of dithiothreitol
# MCF-10A cells = experiment: Cell Titer-Glo antiproliferative assay, MCF-10A; format: cell-based; conditions: antiproliferative activity, non-cancerous breast epithelial cell line
# Protocol: (§1) Antiproliferative activity of grafted cyclic peptides. Antiproliferative activity of the designed grafted peptides was evaluated in different HER2-overexpressing cancer cell lines as well as HER2 negative cancer cell lines.
# (§2) Table 1. […] Single letter amino acid code was used for peptide sequence. Lower case letters refer to D amino acids and capital letters refer to L amino acids. Chirality of Anapa was indicated with R and S configuration in italics. Antiproliferative activity of peptides in cancer cell lines are given as IC50 in μM. Disulfide bonds between the cysteines are underlined.
# BT-474 cells = conditions: read-out: IC50 BT-474 (HER2+); antiproliferative activity
# Protocol: as §1, §2
# MCF-7 cells = conditions: read-out: IC50 MCF-7 (HER2−); antiproliferative activity
# Protocol: as §1, §2
# Calu-3 cells = conditions: read-out: IC50 Calu-3 (HER2+); antiproliferative activity
# Protocol: as §1, §2
# A549 cells = conditions: read-out: IC50 A549 (HER2+); antiproliferative activity
# Protocol: as §1, §2
# [5] = tested on: phosphorylation of HER2 and Akt; experiment: Western blot of HER2 and Akt phosphorylation, A549 cells; format: cell-based
# Protocol: Binding to ECD protein at different concentrations. Kinetics of association and dissociation are shown. Inset saturation curve for binding. […] EGFR was immobilized on CM5-chip and HER2 was added as analyte. Binding of HER2 to EGFR is shown in red. […] Control represents cells without the peptide and without one of the antibodies (B & E). […] Control represents cells without the peptide and without one of the antibodies (F). […] Nucleus was stained with DAPI. III) Quantification of PLA assay fluorescence intensity. 3-6 different fields were chosen, and intensity of red fluorescence was measured using ImageJ software. […] Scale 20 μm. Magnification 40×. *p<0.05, ** p<0.01. Mean±SEM. […] The visualization of GAPDH was used to ensure equal sample loading in each lane. […] II) Quantification of Western blot images using densitometry. *p<0.05 *** P<0.001. Mean±SEM.
# The phosphorylation of HER2 was measured by the p-HER2 monoclonal antibody. […] Lapatinib, an EGFR and HER2 kinase dual inhibitor were used as a positive control.
# T cells (splenocytes) = experiment: immunogenicity, flow cytometry T-cell proliferation (Ki-67) in primed BALB/c mice; format: in vivo; conditions: BALB/c mice primed 6 mg/kg; splenocytes with 5 μM peptide, 48 h
# Protocol: SFTI-G5 is not immunogenic in mice. Molecules that are not endogenous to the body can trigger cellular responses when administered. […] Ki-67 is a proliferation marker of nuclear protein and has been used to measure specific T-cell responses. […] The animals were sacrificed on the 13th day, and splenocytes were harvested and cultured in vitro from both control and primed groups, either in the presence or absence of the peptide. Concanavalin A (5 μg/mL), an antigen-independent mitogen known to induce T-cell proliferation, was used as a positive control.
# Calu-3 xenograft tumors = experiment: Calu-3 xenograft model of lung cancer in nude mice; format: in vivo
# Protocol: 5×10^6 Calu-3 cells suspended in serum-free medium were subcutaneously inoculated in left flank region of mice to induce lung cancer (Foxn1-nude). Peptide (8 mg/kg) was administered via intratumoral injection three times a week after 10 days, Pertuzumab was injected with a loading dose of 12 mg/kg and then 6 mg/kg as maintenance dose intraperitonially once a week, Trastuzumab and pertuzumab combination was injected at a loading dose of 12 mg/kg and then 6 mg/kg as maintenance dose once a week. […] For comparison, pertuzumab (up triangle, blue) and trastuzumab and pertuzumab combination (down triangle, red) also shown (with standard errors for n=6). […] C) PPI inhibition assessed by PLA on tumor tissue sample. […] Tumor sections were homogenized, and protein was extracted and subjected to Western blot. […] (** p<0.01). Mean±SEM.
# HER2 dimerization inhibitors such as pertuzumab and trastuzumab and pertuzumab combinations were also administered as control groups (FIG. 11A). […] During the course of the experiment, the tumor size in the control xenograft group without any treatment continued to increase, reaching a diameter of ˜9 mm in 28 days (FIG. 11B).
# To evaluate the phosphorylation of HER2 protein, Western blot analysis was performed on frozen tumor samples.
Compound,SPR response on HER2 ECD [1],thermal stability [2],"rate of tumor growth, total flux (p/s) ([3]; 6 mg/kg i.v. twice a week, vs vehicle)","H&E histology of lungs: enlarged hyperchromatic nuclei, eosinophilic cytoplasm ([3]; vs vehicle control)",CD spectrum on addition of DTT [4],IC50 (MCF-10A cells),IC50 (BT-474 cells),IC50 (MCF-7 cells),IC50 (Calu-3 cells),IC50 (A549 cells),total HER2 protein levels [5],"phosphorylation of Akt ([5]; 1 μM, 40 h, vs control)","phosphorylation of HER2 kinase ([5]; 1 μM, 40 h, vs control)",immune response: Ki-67 expression in CD3+ subsets (T cells (splenocytes)),"tumor growth (Calu-3 xenograft tumors; Calu-3 xenograft, SFTI-G5 8 mg/kg intratumoral thrice a week, antibodies 12 then 6 mg/kg once a week)","tolerability, body weight and clinical observations (Calu-3 xenograft tumors; SFTI-G5 monotherapy dosing schedule)",EGFR:HER2 dimerization in tumor sections (PLA) (Calu-3 xenograft tumors; vs control tumor sample),HER2 phosphorylation in tumor samples (Western blot) (Calu-3 xenograft tumors; vs vehicle treatment)
"NCCCC[C@H](N)C(=O)NC(CC(=O)N[C@@H](Cc1ccccc1)C(=O)O)c1cccc2ccccc12 (stereo partly drawn) [Control, H2N-K(X)F-OH]",no SPR response was recorded,–,–,–,–,–,–,–,–,–,–,–,–,–,–,–,–,–
"CC[C@H](C)[C@@H]1NC(=O)[C@H](CCCNC(=N)N)NC(=O)C[C@@H](c2cccc3ccccc23)NC(=O)[C@@H]2CSSC[C@H](NC(=O)C[C@@H](c3cccc4ccccc34)NC(=O)[C@H](CCCNC(=N)N)NC(=O)[C@@H]3CCCN3C(=O)[C@@H]3CCCN3C1=O)C(=O)N[C@@H](Cc1ccccc1)C(=O)N1CCC[C@H]1C(=O)N[C@@H](CC(=O)O)C(=O)N[C@@H](CC(=O)O)C(=O)N[C@@H](Cc1ccccc1)C(=O)N2 [SFTI-G5, Cyclo(C(S-X)RIPPR(S-X)CFPDDF)]",–,stable at 75 °C; also recorded: stable up to 75 °C,decreased; also recorded: significant reduction in tumor growth,there were less,sharp change in CD spectrum,> 50000 nM,280 nM,25600 ± 1460 nM,73 nM,369 nM,no significant change in total HER2 protein levels,significantly inhibited the phosphorylation of Akt,significantly decreases the phosphorylation of HER2 kinase,did not show any significant immune response; also recorded: non-immunogenic,delay in tumor growth that was significant compared to control; also recorded: delayed tumor growth,well-tolerated,markedly diminished signals from dimerization,significant inhibition of HER2 phosphorylation
